Test system: 10 mm tibial defect model in rabbits
Test: 10 mm tibial defect model in rabbits with calcium sulphate (Osteoset) cylinder; pQCT scans and radiographs
Assay type: in vivo, NZW rabbit
Conditions: for BMC / BMD / Polar Moment / Total Bone Area: 6 weeks; for Total Bone Area: CT slice at centre of defect
Text: The following example outlines the process by which the effects of bisphosphonates on potentiating new bone formation in a graft may be observed. In this regard, the effects on bone mineralisation and the mechanical properties are observed in a 10 mm tibial defect model in rabbits.
The present experiment uses an 8-week-old NZW rabbit model. A 10 mm gap is surgically removed from the tibiae of the rabbits. The bones are held with a M-100 external fixator.
Cylinders of calcium sulphate (Osteoset) were prepared on the day of surgery. Moulds were prepared using a combination of 1.0 ml and 3.0 ml syringes, and the Osteoset poured into the moulds in a sterile environment. The cylinders were removed from the moulds at 12 minutes, and allowed to dry in air for 90 minutes, followed by final drying in a microwave for 30 seconds. Once dry, the cylinders were formed into a standard dimension of 10 mm length, with an external diameter of 9 mm and with a 3 mm diameter internal core. The cylinders weighed 0.80.9 g. The cylinders were stored in sterile environment until required.
At the commencement of the operative procedure 0.15 ml of saline, or 0.15 ml of zoledronic acid (0.05 mg/kg) was adsorbed onto a calcium sulphate cylinder, which was then replaced into the sterile container.
The operative field was prepared by shaving with clippers, disinfected with povidone iodine 4% w/v in 70% alcohol. The right tibia was exposed sub-periosteally along its length and four 3 mm Orthofix pins inserted. An M-100 monolateral external fixator (Orthofix S.L.R) was applied. A 10 mm piece of mid-diaphyseal tibia was removed using an oscillating saw, along with the central 10 mm of periosteum. A calcium sulphate cylinder was then placed in the defect, and held by slight compression of the external fixator.
The animals were randomised such that at the time of surgery, 24 animals had Osteoset cylinders with saline adsorbed inserted, 12 of whom were given saline-only infusions and 12 of whom were given 0.1 mg/kg zoledronic acid infusion at the time of surgery and again on day 14. A further 12 animals had Osteoset cylinders with 0.15 ml of zoledronic acid (0.05 mg/kg) adsorbed inserted, and given a saline only infusion. Note that in the third leg the zoledronic acid was administered to the site via the cylinder, and not directly.
Animals were culled at 28 days (18 animals) and at 42 days (18 animals) with IV pentobarbitone 150 mg/kg.
[…]. CT scans were performed at 28 days (18 animals) and at 42 days (18 animals) using a Stratec XCT Research SA pQCT scanner.

[1] = IV ZA 0.1 mg/kg at surgery and day 14
[2] = Local ZA 0.05 mg/kg adsorbed on cylinder

## O=P(O)(O)C(O)(Cn1ccnc1)P(=O)(O)O [ZA, 1-hydroxy-2-[(1H-imidazol-1-yl)ethylidine]bisphosphonic acid]
4 weeks, IV ZA group
  Bone area increase over controls: 131%
  Polar moment of inertia increase over controls: 104%
4 weeks, Local ZA group
  Bone area increase over controls: 216%
  Polar moment of inertia increase over controls: 316%
[1]
  BMC: 45.9 (20.7) mg/mm
  BMD: 784.6 (97.7) mg/cm^3
  Polar Moment: 442.8 (585.2) mm^4
IV ZA 0.1 mg/kg infusion at surgery and day 14
  Total Bone Area: 58.0 (23.2) mm^2
Local ZA 0.05 mg/kg adsorbed on calcium sulphate cylinder
  Total Bone Area: 66.6 (7.9) mm^2
[2]
  BMC: 45.0 (5.4) mg/mm
  BMD: 676.2 (49.3) mg/cm^3
  Polar Moment: 1343.1 (254.7) mm^4
Six weeks, Local ZA group
  Polar moment of inertia increase over controls: 40%
Six weeks, local bisphosphonate group, not significant
  Cross sectional area increase over controls: 20%
